Experimental data reported in article PMC6896172, “Successful Targeting of the Warburg Effect in Prostate Cancer by Glucose-Conjugated 1,4-Naphthoquinones” (Cancers, 2019).

Tested on: 22Rv1 cells
Experiment: Global proteome analysis (LC-MS/MS, DIA) of differentially expressed proteins
Assay type: cell-based, human
Method: 22Rv1 cells were seeded in T75 culture bottles (4 × 10^6 cells/bottle in 20 mL/bottle), treated for 48 h with the 5 µM of compound 11 or vehicle (DMSO), harvested by scratching, washed twice with ice-cold PBS and flash-frozen. Cells were lysed and sonicated. The protein extracts were then heat-denaturated, reduced, alkylated and digested by trypsin. Peptides were chromatographically separated using full recovery autosampler vials and a nano-UPLC system (Acquity, Waters Corporation, Milford, MS, USA), coupled via electrospray ionization (ESI) to a tandem mass spectrometer equipped with a quadrupole and an orbitrap (QExactive, Thermo Fisher Scientific, Bremen, Germany), using MS/MS mode in data dependent acquisition (DDA) and data independent acquisition (DIA). The peptides, analyzed with DDA-LC-MS/MS, were identified with the search engine Sequest, integrated in the Proteome Discoverer software version 2.0 (Thermo Fischer Scientific) using the human Uniprot protein database (EMBL; Hinxton Cambridge, UK, release December 2018). […] For the details of sample preparation and proceeding, data acquisition and analysis see the Supplementary information. […]
serum (FBS, Invitrogen) and 1% penicillin/streptomycin (Invitrogen)). […]
Cell lines were lysed in 100 mM triethylammonium bicarbonate and 1% w/v sodium deoxycholate buffer followed by probe sonication to destroy polynucleotides and heat induce protein denaturing at 99 °C for 5 min. Protein concentrations were estimated with a bicinchonic acid (BCA) protein assay (Thermo Fisher Scientific, Bremen, Germany). 20 µg of protein were reduced in presence of 10 mM dithiotreithol (Sigma Aldrich) for 30 min at 60 °C followed by cysteine alkylation with 20 mM iodo acetamide (Sigma Aldrich) for 30 min at 37 °C in the dark and enzymatic degradation with sequencing grade trypsin (Promega) over night at 37 °C. Digestion was quenched with 1% formic acid (FA), precipitated sodium deoxycholate removed by centrifugation for 5 min at 14,000 g and the supernatant was dried in a vacuum centrifuge.
LC-MS/MS in Data Dependent and Data Independent Mode
Samples were resuspended in 0.1% FA and transferred into a full recovery autosampler vial (Waters). Chromatographic separation was achieved on a nano -UPLC system (Acquity, Waters Corporation, Milford, MS, USA) with a two-buffer-system (buffer A: 0.1% FA in water, buffer B:
0.1% FA in Acetonitrile (ACN), both at pH = 3). Attached to the UPLC was a reversed -phase peptide trapping column (Symmetry C18, 180 µm × 20 mm, 100 Å pore size, 5 µm particle size) for desalting, followed by a reversed-phase capillary separation of the tryptic peptides (BEH C18; 75 µm × 200 mm, 130 Å pore size, 1.7 µm particle size), using a 60 min gradient with increasing ACN concentration from 2–30% ACN. The eluting peptides were analyzed on a quadrupole-orbitrap mass spectrometer (QExactive, Thermo Fisher Scientific, Bremen, Germany) in data dependent acquisition (DDA) and data independent acquisition (DIA) for quantification.
In DDA mode, one replicate of each cell line was randomly chosen and 1 µg per sample was used per LC-MS/MS run to build a reference spectral library used for data extraction of samples acquired in DIA mode. For DDA, the 12 most intense ions per precursor scan (1 × 10 6 ions, 70,000 Resolution, 120 ms fill time) were analyzed by MS/MS (HCD at 25 normalized collision energy, 1 × 105 ions, 17,500 Resolution, 50 ms fill time) in a range of 400–1300 m/z. A dynamic precursor exclusion of 20 s was used. For DIA, 1 µg of each sample was analyzed using a 30 sequential 20 Da fixed window method covering the mass range from 400 –1000 m/z. Per cycle, 2 precursor scans (1 × […]
28 normalized collision energy, 1 × 106 ions, 17,500 Resolution, 50 ms fill time) were performed.
After the first precursor scan, 15 MS/MS scans were performed covering the precursor mass range from 400–700 m/z followed by the second precursor scan and another 15 MS/MS scans ranging from […]
LC-MS/MS Data Processing and Analysis […]

CC1(C)OC2OC(C(O)COC3=CC(=O)c4cccc(O)c4C3=O)C(O)C2O1 (stereo not shown) [Compound 11]
Fold change (treated / control) (protein ARID2_HUMAN (Q68CP9)): 0.5698 | Fold change (treated / control) (protein BAZ1B_HUMAN (Q9UIG0)): 0.5909 | Fold change (treated / control) (protein BCAM_HUMAN (P50895)): 0.2614 | Fold change (treated / control) (protein BRD1_HUMAN (O95696)): 0.5595 | Fold change (treated / control) (protein CBX5_HUMAN (P45973)): 0.6078 | Fold change (treated / control) (protein CCD86_HUMAN (Q9H6F5)): 0.6454 | Fold change (treated / control) (protein CEBPZ_HUMAN (Q03701)): 0.6117 | Fold change (treated / control) (protein CHCH5_HUMAN (Q9BSY4)): 0.3153 | Fold change (treated / control) (protein CISD1_HUMAN (Q9NZ45)): 0.6534 | Fold change (treated / control) (protein CLUS_HUMAN (P10909)): 0.6547 | Fold change (treated / control) (protein CMTD1_HUMAN (Q86VU5)): 0.6695 | Fold change (treated / control) (protein COASY_HUMAN (Q13057)): 0.6716 | Fold change (treated / control) (protein COQ5_HUMAN (Q5HYK3)): 0.6569 | Fold change (treated / control) (protein CPSF7_HUMAN (Q8N684)): 0.5898 | Fold change (treated / control) (protein CRIP2_HUMAN (P52943)): 0.5784 | Fold change (treated / control) (protein CX6B1_HUMAN (P14854)): 0.5635 | Fold change (treated / control) (protein DDX21_HUMAN (Q9NR30)): 0.6203 | Fold change (treated / control) (protein DDX50_HUMAN (Q9BQ39)): 0.5638 | Fold change (treated / control) (protein DDX52_HUMAN (Q9Y2R4)): 0.5706 | Fold change (treated / control) (protein DESP_HUMAN (P15924)): 0.5753 | Fold change (treated / control) (protein DHX30_HUMAN (Q7L2E3)): 0.6273 | Fold change (treated / control) (protein DPOE3_HUMAN (Q9NRF9)): 0.6062 | Fold change (treated / control) (protein E2AK2_HUMAN (P19525)): 0.6134 | Fold change (treated / control) (protein EDF1_HUMAN (O60869)): 0.6154 | Fold change (treated / control) (protein EFTU_HUMAN (P49411)): 0.6185 | Fold change (treated / control) (protein ELOV5_HUMAN (Q9NYP7)): 0.5895 | Fold change (treated / control) (protein FAKD2_HUMAN (Q9NYY8)): 0.6444 | Fold change (treated / control) (protein FKB10_HUMAN (Q96AY3)): 0.625 | Fold change (treated / control) (protein FKBP8_HUMAN (Q14318)): 0.6712 | Fold change (treated / control) (protein GCN1_HUMAN (Q92616)): 0.6676 | Fold change (treated / control) (protein GRSF1_HUMAN (Q12849)): 0.6529 | Fold change (treated / control) (protein H2AY_HUMAN (O75367)): 0.6499 | Fold change (treated / control) (protein HSPB6_HUMAN (O14558)): 0.6349 | Fold change (treated / control) (protein IF4A1_HUMAN (P60842)): 0.6202 | Fold change (treated / control) (protein IMA1_HUMAN (P52292)): 0.5682 | Fold change (treated / control) (protein IQEC2_HUMAN (Q5JU85)): 0.6175 | Fold change (treated / control) (protein K2013_HUMAN (Q8IYS2)): 0.3342 | Fold change (treated / control) (protein LRWD1_HUMAN (Q9UFC0)): 0.5648 | Fold change (treated / control) (protein MAP2_HUMAN (P50579)): 0.6543 | Fold change (treated / control) (protein MCM3_HUMAN (P25205)): 0.6329 | Fold change (treated / control) (protein MCM4_HUMAN (P33991)): 0.5634 | Fold change (treated / control) (protein MCM5_HUMAN (P33992)): 0.5949 | Fold change (treated / control) (protein MCM6_HUMAN (Q14566)): 0.6119 | Fold change (treated / control) (protein MCM7_HUMAN (P33993)): 0.5855 | Fold change (treated / control) (protein MIPEP_HUMAN (Q99797)): 0.6023 | Fold change (treated / control) (protein MTA1_HUMAN (Q13330)): 0.5631 | Fold change (treated / control) (protein MTA2_HUMAN (O94776)): 0.5939 | Fold change (treated / control) (protein MYOME_HUMAN (Q5VU43)): 0.6576 | Fold change (treated / control) (protein NDUA3_HUMAN (O95167)): 0.3195 | Fold change (treated / control) (protein NDUAC_HUMAN (Q9UI09)): 0.6076 | Fold change (treated / control) (protein NDUV1_HUMAN (P49821)): 0.6332 | Fold change (treated / control) (protein NUDC_HUMAN (Q9Y266)): 0.6476 | Fold change (treated / control) (protein P4HTM_HUMAN (Q9NXG6)): 0.3114 | Fold change (treated / control) (protein PCNA_HUMAN (P12004)): 0.6578 | Fold change (treated / control) (protein PDS5A_HUMAN (Q29RF7)): 0.5949 | Fold change (treated / control) (protein PTMA_HUMAN (P06454)): 0.5745 | Fold change (treated / control) (protein RFC2_HUMAN (P35250)): 0.5826 | Fold change (treated / control) (protein RFC3_HUMAN (P40938)): 0.567 | Fold change (treated / control) (protein RFC4_HUMAN (P35249)): 0.5722 | Fold change (treated / control) (protein RFC5_HUMAN (P40937)): 0.6148 | Fold change (treated / control) (protein RL1D1_HUMAN (O76021)): 0.6228 | Fold change (treated / control) (protein RL4_HUMAN (P36578)): 0.563 | Fold change (treated / control) (protein RL10A_HUMAN (P62906)): 0.5923 | Fold change (treated / control) (protein RL13_HUMAN (P26373)): 0.6224 | Fold change (treated / control) (protein RL15_HUMAN (P61313)): 0.6202 | Fold change (treated / control) (protein RL19_HUMAN (P84098)): 0.3072 | Fold change (treated / control) (protein RL23A_HUMAN (P62750)): 0.5699 | Fold change (treated / control) (protein RL23_HUMAN (P62829)): 0.6468 | Fold change (treated / control) (protein RL27A_HUMAN (P46776)): 0.6191 | Fold change (treated / control) (protein RL34_HUMAN (P49207)): 0.2863 | Fold change (treated / control) (protein RL36_HUMAN (Q9Y3U8)): 0.6291 | Fold change (treated / control) (protein RM11_HUMAN (Q9Y3B7)): 0.6501 | Fold change (treated / control) (protein RM45_HUMAN (Q9BRJ2)): 0.6189 | Fold change (treated / control) (protein RM53_HUMAN (Q96EL3)): 0.5657 | Fold change (treated / control) (protein RM54_HUMAN (Q6P161)): 0.6079 | Fold change (treated / control) (protein RPA34_HUMAN (O15446)): 0.6508 | Fold change (treated / control) (protein RPAB5_HUMAN (P62875)): 0.5655 | Fold change (treated / control) (protein RS2_HUMAN (P15880)): 0.6402 | Fold change (treated / control) (protein RS6_HUMAN (P62753)): 0.6108 | Fold change (treated / control) (protein RS9_HUMAN (P46781)): 0.6218 | Fold change (treated / control) (protein S27A3_HUMAN (Q5K4L6)): 0.6711 | Fold change (treated / control) (protein SERC1_HUMAN (Q9NRX5)): 0.3307 | Fold change (treated / control) (protein SIGIR_HUMAN (Q6IA17)): 0.5907 | Fold change (treated / control) (protein SMCA5_HUMAN (O60264)): 0.6602 | Fold change (treated / control) (protein SMRC1_HUMAN (Q92922)): 0.6541 | Fold change (treated / control) (protein SPB1_HUMAN (Q8IY81)): 0.6134 | Fold change (treated / control) (protein STRBP_HUMAN (Q96SI9)): 0.6608 | Fold change (treated / control) (protein SUOX_HUMAN (P51687)): 0.6055 | Fold change (treated / control) (protein TF3C1_HUMAN (Q12789)): 0.6535 | Fold change (treated / control) (protein TF3C5_HUMAN (Q9Y5Q8)): 0.6483 | Fold change (treated / control) (protein TIM8B_HUMAN (Q9Y5J9)): 0.3123 | Fold change (treated / control) (protein UBL5_HUMAN (Q9BZL1)): 0.5618 | Fold change (treated / control) (protein UCRI_HUMAN (P47985)): 0.5774 | Fold change (treated / control) (protein UTP18_HUMAN (Q9Y5J1)): 0.63 | Fold change (treated / control) (protein VIGLN_HUMAN (Q00341)): 0.6343 | Fold change (treated / control) (protein XRN2_HUMAN (Q9H0D6)): 0.664 | Fold change (treated / control) (protein YBOX1_HUMAN (P67809)): 0.6605 | Fold change (treated / control) (protein ZN326_HUMAN (Q5BKZ1)): 0.6081 | Fold change (treated / control) (protein ZN428_HUMAN (Q96B54)): 0.5792 | Fold change (treated / control) (protein ZN595_HUMAN (Q8IYB9)): 0.6231
